In PMC11053447, “Human ABC and SLC Transporters: The Culprit Responsible for Unspecific PSMA-617 Uptake?” (Pharmaceuticals, 2024):
Each block holds one compound with its values, some of them ahead of it. Where a SMILES comes first, the peptide text is derived from it. [ ]: non-standard residue; d: D form. Sar = CNCC(=O)O

Columns and labels:
MRP1 = MRP1 (Homo sapiens, UniProt P33527)
Procedure: The incubations were carried out in the presence of 4 mM ATP or AMP to distinguish between transporter-mediated uptake and passive diffusion into the vesicles. […] Afterwards, the reaction mixtures were pre-incubated for 15 min at 37 °C for MRP1 or at 32 °C for BCRP, MDR1 and MRP4, respectively. The transporter assay was initiated through the addition of 25 μL of pre-warmed 12 mM MgATP (or 12 mM AMP in assay buffer as a background control). The reactions were quenched through the addition of 200 μL of ice-cold washing buffer and immediate filtration via glass fiber filters mounted onto a 96-well plate (filter plate). The filters were washed (5 × 200 μL of ice-cold washing buffer) and dried, and the amount of probe substrate inside the filtered vesicles was determined using LSC. The experiments were conducted in triplicate.
Calculation of ATP-dependent transport and inhibition for vesicular transport inhibition
For all wells the amount of the translocated probe substrate was determined in counts per minute (cpm).
ATP-dependent transport (pmol/mg protein/min) is calculated for each concentration using the following
𝐴𝑐𝑐𝐴𝑇𝑃 ∙ 𝑉 ∙ 𝐶𝐶 𝐴𝑐𝑐𝐴𝑀𝑃 ∙𝑉 ∙𝐶𝐶
𝐴𝑇𝑃 − 𝑑𝑒𝑝𝑒𝑛𝑑𝑒𝑛𝑡 𝑎𝑐𝑐𝑢𝑚𝑢𝑙𝑎𝑡𝑖𝑜𝑛 = ( 𝑇𝐶𝑃𝑀 𝑠𝑢𝑏) − ( 𝑇𝐶𝑃𝑀 𝑠𝑢𝑏)
• AccATP: probe substrate accumulation with ATP (cpm)
• AccAMP: probe substrate accumulation with AMP (cpm)
• Tcpm: cpm in dosing solution V: volume per well (µL)
• CCsub: probe substrate concentration (µM)
• Prot: total protein per well (mg)
• t: incubation time (min)
Relative ATP-dependent transport (%) values were calculated using the following equation:
𝑅𝑒𝑙𝑎𝑡𝑖𝑣𝑒 𝐴𝑇𝑃 − 𝑑𝑒𝑝𝑒𝑛𝑑𝑒𝑛𝑡 𝑡𝑟𝑎𝑛𝑠𝑝𝑜𝑟𝑡 (%) = 𝐴 − 𝐵 ∙ 100
• A: amount of translocated substrate in the presence of test substance (TS) and ATP
• B: amount of translocated substrate in the presence of test substance (TS) and AMP
• C: amount of translocated substrate in the presence of solvent and ATP
• D: amount of translocated substrate in the presence of solvent and AMP
Relative inhibition (%) is calculated by setting probe substrate transport in the absence of test substance as
𝑅𝑒𝑙𝑎𝑡𝑖𝑣𝑒 𝑖𝑛ℎ𝑖𝑏𝑖𝑡𝑖𝑜𝑛 (%) = 𝐴𝑐𝑐𝑆𝑝𝑒𝑐𝑖𝑓𝑖𝑐,𝑥 ∙100
• Accspecific,x: transporter specific accumulation for a given sample (pmol/mg/min)
• Accspecific,vehicle: transporter specific accumulation for a solvent control (pmol/mg/min)

human OAT4 = target: T1, human OAT4 (Homo sapiens, UniProt Q9NSA0); assay: SLC transporter substrate assay, HEK293-OAT4-LV vs control HEK293-Mock-LV cells; details: 1 min
T1 sequence (Q9NSA0 1-550): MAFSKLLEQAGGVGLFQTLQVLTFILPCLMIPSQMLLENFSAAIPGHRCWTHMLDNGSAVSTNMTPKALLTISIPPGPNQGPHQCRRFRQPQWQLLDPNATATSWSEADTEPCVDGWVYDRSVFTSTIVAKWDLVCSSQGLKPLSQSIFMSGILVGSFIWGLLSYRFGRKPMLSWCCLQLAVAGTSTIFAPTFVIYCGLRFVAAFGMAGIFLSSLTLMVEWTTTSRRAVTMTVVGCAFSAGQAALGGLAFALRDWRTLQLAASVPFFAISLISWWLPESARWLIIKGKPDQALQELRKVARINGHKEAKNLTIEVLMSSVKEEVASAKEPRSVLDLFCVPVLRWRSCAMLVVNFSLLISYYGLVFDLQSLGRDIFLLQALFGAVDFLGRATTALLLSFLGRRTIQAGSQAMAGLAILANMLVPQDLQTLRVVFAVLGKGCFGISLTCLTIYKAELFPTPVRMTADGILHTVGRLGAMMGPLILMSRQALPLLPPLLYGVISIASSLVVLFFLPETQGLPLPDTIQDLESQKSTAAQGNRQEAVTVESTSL

human PEPT2 = target: T2, human PEPT2 (Homo sapiens, UniProt Q16348); assay: SLC transporter substrate assay, CHO-K1-PEPT2 vs control CHO-K1 cells; details: 8 min
T2 sequence (Q16348 1-729): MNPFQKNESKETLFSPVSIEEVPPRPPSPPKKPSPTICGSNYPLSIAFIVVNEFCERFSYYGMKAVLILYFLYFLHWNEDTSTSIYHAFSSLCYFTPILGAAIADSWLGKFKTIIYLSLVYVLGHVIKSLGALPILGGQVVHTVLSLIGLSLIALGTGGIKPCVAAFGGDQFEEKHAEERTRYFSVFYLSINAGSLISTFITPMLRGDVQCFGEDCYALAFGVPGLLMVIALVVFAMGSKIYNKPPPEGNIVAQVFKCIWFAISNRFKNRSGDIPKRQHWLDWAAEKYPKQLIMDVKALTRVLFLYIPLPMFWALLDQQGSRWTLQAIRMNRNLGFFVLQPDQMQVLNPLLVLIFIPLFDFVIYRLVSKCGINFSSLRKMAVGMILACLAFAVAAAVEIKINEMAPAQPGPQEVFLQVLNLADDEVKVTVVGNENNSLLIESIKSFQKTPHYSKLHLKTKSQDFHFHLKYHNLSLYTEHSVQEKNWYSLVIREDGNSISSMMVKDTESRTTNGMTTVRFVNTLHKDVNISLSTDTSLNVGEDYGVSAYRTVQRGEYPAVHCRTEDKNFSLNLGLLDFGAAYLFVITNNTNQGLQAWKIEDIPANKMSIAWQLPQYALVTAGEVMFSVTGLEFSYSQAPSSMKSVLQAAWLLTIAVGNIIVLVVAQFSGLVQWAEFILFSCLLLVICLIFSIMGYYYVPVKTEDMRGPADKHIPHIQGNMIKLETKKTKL
Procedure: The described cells were plated onto standard 24-well tissue culture plates at densities of 5 × 10^5 cells/well. […] Before starting the experiment, the cells were prepared by removing the medium and washing the cells twice with 300 µL of assay buffer. […] The cells were lysed by adding 300 µL of 0.1N NaOH, they were incubated for 10 min at 37 °C and 100 µL samples were taken from all the wells.
The amount of protein in each well was quantified using the BCA kit for protein determination (Sigma-Aldrich, St Louis, MO, USA). Positive controls were performed using a separate 96-well plate format according to Table S8 in SI4.
SI4. Results of transporter substrate assays (SLC)
Table S8: Parameters of positive controls, control cell lines and plating for SLC transporters assays.
KH: Krebs-Henseleit buffer, HBSS: Hank's balanced salt solution, MES: 2 -(N-morpholino) ethanesulfonic acid, cGMP:
Guanosine cyclic phosphate, E3S: Estrone -3-sulfate, Gly-Sar: Glycylsarcosine, MPP+: 1-methyl-4-phenylpyridinium.
Calculation of fold accumulation values for SLC transporter substrate assays The fold accumulation value was defined as the ratio of uptake of the test substance (TS) or probe substrate into transfected and control cells. If the fold accumulation is > 2 and can be inhibited by a known inhibitor of the transporter, the test substance can be considered as a substrate of the respective transporter.
Fold accumulation = UPTTRP
• UPTTRP: accumulated amount of test substance (TS) or probe substrate in transfected cells normalized by protein content […]
• UPTCTRL: accumulated amount of test substance (TS) or probe substrate in control cells normalized by protein content […]
Positive control conducted at pH 5.0.
Gly-Sar: Glycylsarcosine.

[1] = positive control inhibitor 200.0 µM, E217βG probe, mean (n=3) ± SD
[2] = positive control at pH 5.0: Gly-Sar 4 µM + Cefadroxil 200 µM
[3] = positive control at pH 5.0: Gly-Sar 4 µM

Chain of MRP1 (P33527 whole entry): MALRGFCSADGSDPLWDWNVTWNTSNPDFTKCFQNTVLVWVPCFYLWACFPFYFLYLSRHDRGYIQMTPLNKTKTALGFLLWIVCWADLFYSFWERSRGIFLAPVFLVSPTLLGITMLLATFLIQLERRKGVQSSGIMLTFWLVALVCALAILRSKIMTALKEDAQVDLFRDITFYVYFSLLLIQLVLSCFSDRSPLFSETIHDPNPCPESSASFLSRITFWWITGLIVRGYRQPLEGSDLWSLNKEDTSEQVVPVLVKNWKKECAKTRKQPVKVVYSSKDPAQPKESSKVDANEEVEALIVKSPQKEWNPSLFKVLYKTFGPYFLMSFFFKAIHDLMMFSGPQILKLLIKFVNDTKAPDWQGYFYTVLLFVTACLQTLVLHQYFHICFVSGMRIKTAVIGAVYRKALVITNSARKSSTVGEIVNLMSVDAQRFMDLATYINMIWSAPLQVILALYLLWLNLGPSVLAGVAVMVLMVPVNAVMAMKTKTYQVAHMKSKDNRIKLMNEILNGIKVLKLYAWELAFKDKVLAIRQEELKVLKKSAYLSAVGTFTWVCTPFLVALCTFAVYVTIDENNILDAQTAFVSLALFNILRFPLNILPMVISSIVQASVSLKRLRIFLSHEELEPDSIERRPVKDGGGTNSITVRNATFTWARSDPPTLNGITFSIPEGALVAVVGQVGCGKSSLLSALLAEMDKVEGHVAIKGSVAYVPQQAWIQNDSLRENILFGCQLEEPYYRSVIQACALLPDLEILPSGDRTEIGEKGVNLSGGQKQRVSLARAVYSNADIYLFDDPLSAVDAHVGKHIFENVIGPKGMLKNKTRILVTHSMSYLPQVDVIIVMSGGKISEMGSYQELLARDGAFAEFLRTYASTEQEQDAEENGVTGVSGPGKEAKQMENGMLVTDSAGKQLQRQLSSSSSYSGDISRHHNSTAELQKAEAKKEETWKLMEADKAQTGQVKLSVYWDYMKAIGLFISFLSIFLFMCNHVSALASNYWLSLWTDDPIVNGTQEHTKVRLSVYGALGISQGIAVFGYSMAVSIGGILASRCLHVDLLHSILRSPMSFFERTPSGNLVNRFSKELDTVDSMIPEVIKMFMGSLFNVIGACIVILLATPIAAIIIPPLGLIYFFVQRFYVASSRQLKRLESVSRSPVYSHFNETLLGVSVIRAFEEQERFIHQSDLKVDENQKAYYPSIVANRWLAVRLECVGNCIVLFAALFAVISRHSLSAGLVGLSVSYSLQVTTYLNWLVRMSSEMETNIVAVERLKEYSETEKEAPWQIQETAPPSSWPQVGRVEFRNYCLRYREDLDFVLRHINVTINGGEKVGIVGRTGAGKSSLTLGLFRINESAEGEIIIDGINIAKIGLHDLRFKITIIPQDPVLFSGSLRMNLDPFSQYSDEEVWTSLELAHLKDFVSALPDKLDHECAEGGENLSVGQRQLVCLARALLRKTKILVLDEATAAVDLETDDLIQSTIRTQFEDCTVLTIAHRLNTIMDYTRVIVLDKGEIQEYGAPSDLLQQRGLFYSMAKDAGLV

SMILES: CCc1oc2ccccc2c1C(=O)c1cc(Br)c(O)c(Br)c1 [Benzbromarone, benzbromarone, reference compound]
inhibition at 3 min, 200 µM (MRP1; human, membrane vesicles from Sf9 cells transfected with human MRP1, […], 0.2 µM): 104%
ATP dependent transport (MRP1; [1]): -26.33 ± 10.19 pmol/mg/min
Relative ATP dependent transport (MRP1; [1]): -3.87 ± 1.50 % of control

SMILES: C[C@]12CC[C@@H]3c4ccc(OS(=O)(=O)[O-])cc4CC[C@H]3[C@@H]1CCC2=O.[Na+] [E3S, estrone-3-sulfate sodium salt, reference compound]
Fold accumulation (human OAT4; positive control: E3S 1 µM + Benzbromarone 300 µM): 5.12
Fold accumulation (human OAT4; positive control: E3S 1 µM): 24.16

Accumulation in PEPT2 transporter expressing cells (human PEPT2; [2]): 263.67 cpm
Accumulation in control cells (human PEPT2; [2]): 34.33 cpm
Accumulation, active transport (human PEPT2; [2]): 229.33 cpm
Fold accumulation (human PEPT2; [2]): 7.68
Accumulation in PEPT2 transporter expressing cells (human PEPT2; [3]): 1570.00 cpm
Accumulation in control cells (human PEPT2; [3]): 31.33 cpm
Accumulation, active transport (human PEPT2; [3]): 1538.67 cpm
Fold accumulation (human PEPT2; [3]): 50.11
SMILES: CN(CC(=O)O)C(=O)CN [Gly-Sar, glycylsarcosine, reference compound] (H-Gly-[Sar]-OH)
